How the values were obtained:
[1] = MES - Maximum Electroshock Attack Test (anticonvulsive action, intraperitoneal); assay type: in vivo, mouse (male Carworth Farms Mice); conditions: in vivo, ip; mouse, intraperitoneal; number below the slanting line; read-out: quotient TD 50/ED 50 (MES), therapeutic breadth
Experimental: (§1) All experiments were carried out with male Carworth Farms Mice.
(§2) The materials were tested in three dosages (30, 100, 300 mg/kg) (600 mg/kg was co-tested if a sufficient amount of the material was present). The materials in each case were dissolved in 30% aqueous polyethylene glycol solution.
(§3) A maximum electroshock attack was obtained through alternating current (60 Hz, 50 m A intensity) with which the mouse was irritated for 0.2 seconds via corneal electrodes. A 5-7 times weaker intensity of irritation was sufficient to produce a minimum electroshock-attack. One drop of 0.9% aqueous NaCl solution was given before applying the electrodes into the eyes in order to guard against killing the animals. The test substances were dispersed intraperitoneally before the irritation. […] the tonic stretching components of the attack (rear extremities) was regarded as protective action. The results were represented as follows:
(§4) number of animals having protective action/total number of test animals

[2] = tested on: mouse; assay: as above; assay type: in vivo, mouse (male Carworth Farms Mice); conditions: ip, read-out: Maximum Electro-Shock (MES) ED 50
Experimental: as §1, §2, §3, §4

[3] = s.c. Met - Subcutaneous Pentetrazole (Metrazole) Test (anticonvulsive action, intraperitoneal); assay type: in vivo, mouse (male Carworth Farms Mice); conditions: in vivo, ip; mouse, intraperitoneal; number below the slanting line; read-out: quotient TD 50/ED 50 (MET), therapeutic breadth
Experimental: as §1, §2
(§5) The absence of a clearly noticeable attack, (single occurrence of a […] spasm lasting 5 seconds) based on the previous intraperitoneal application of the test substances evaluated as protective action (the test substances were applied intraperitoneally before the application of pentetrazole). The results were represented as follows: number of animals having protective action/total number of test animals

[4] = tested on: mouse; assay: as above; assay type: in vivo, mouse (male Carworth Farms Mice); conditions: ip, read-out: Metrazole-Test (MET) ED 50
Experimental: as §1, §2, §5

[5] = TD 50 - Neurotoxicity, rotating rod; design: species or system mouse (male Carworth Farms Mice); conditions: in vivo, ip, mouse, intraperitoneal
Experimental: TD 50: is the ED 50 for the behavior of the mouse on the experimental
model of the rotating rod in mg/kg with intraperitoneal application. The
TD 50 is a measure for the undesired neurotoxic side effect.
as §1, §2
The test on the rotating rod was referred to for the evaluation of the neurotoxicity. The animals were placed on a rotating (6 rotations per minute) plastic rod having a diameter of 2.54 cm. […] An animal was characterized as neurologically toxic if it fell from the rotating rod within one minute.
number of animals which fell/total number of test animals

[6] = Oral acute toxicity (LD 50) according to Miller & Tainter; design: species or system white mouse; conditions: in vivo, mouse, per os, observation time 24 hours
Experimental: Examples for the toxicity on the mouse per se (expressed as LD 50 in mg/kg are as follows: […]
The determination of the oral toxicity on the white mouse was carried out in the international procedure according to Miller & Tainter (Proc. Soc., Exper. Biol. a Med. Vol. 57, page 261 et. seq. (1944)) with an observation time of 24 hours. The toxicity was stated as LD 50 in mg/kg.

Row | Structure (SMILES) | selectivity ratio [1] | ED50 ([2]; Mus musculus) | selectivity ratio [3] | ED50 ([4]; Mus musculus) | TD50 [5] | LD50 at 24 h [6] | ED50 ([2]; mouse, intraperitoneal) | ED50 ([4]; mouse, intraperitoneal, s.c. pentetrazole 85 mg/kg)
1 | CCOC(=O)Nc1ccc(NCc2c(C)cc(C)cc2C)nc1N.Cl [D 10 328, 2-amino-3-carbethoxyamino-6-(2,4,6-trimethyl-benzylamino)pyridine-hydrochloride] | 0.55 | 1.97 mg/kg | 1.08 | 1.01 mg/kg | 1.09 mg/kg | 127 mg/kg | – | –
2 | CCOC(=O)Nc1ccc(NCc2ccc(C(C)=O)cc2)nc1N [D 10 558, 2-amino-3-carbethoxyamino-6-(4-methylcarbonyl-benzylamino)-pyridine] | 1.37 | 53.8 mg/kg | 4 | 18.4 mg/kg | 73.9 mg/kg | – | – | –
3 | CCOC(=O)Nc1ccc(NCc2cccc(F)c2)nc1N.Cl [D 10 981, 2-amino-3-carbethoxyamino-6-(3-fluorobenzylamino)-pyridine-hydrochloride] | 1.9 | 17.2 mg/kg | 3.61 | 9.07 mg/kg | 32.7 mg/kg | 2060 mg/kg | – | –
4 | CCOC(=O)Nc1ccc(NCc2ccc(C(F)(F)F)cc2)nc1N.Cl [D 11 208, 2-amino-3-carbethoxyamino-6-(4-trifluoromethyl-benzylamino)-pyridine-hydrochloride] | 2.73 | 27.9 mg/kg | 6.81 | 11.2 mg/kg | 76.3 mg/kg | – | – | –
5 | CC(=O)Nc1ccc(NCc2ccc(F)cc2)nc1N.Cl [D 13 223, 2-amino-3-acetamino-6-(4-fluoro-benzylamino)-pyridine-hydrochloride] | 2.38 | 84.3 mg/kg | 2.14 | 93.8 mg/kg | 201 mg/kg | – | – | –
6 | CCOC(=O)Nc1ccc(NCc2ccccc2)nc1N.Cl [D 7175, 2-amino-3-carbethoxyamino-6-benzylamino-pyridine-hydrochloride] | 2.3 | 19.7 mg/kg | 4.8 | 9.46 mg/kg | 45.6 mg/kg | 402 mg/kg | – | –
7 | CCOC(=O)Nc1ccc(NCc2ccc(Cl)cc2)nc1N.Cl [D 9389, 2-amino-3-carbethoxyamino-6-(4-chlorobenzylamino)-pyridine-hydrochloride] | 1.64 | 14.6 mg/kg | 2.39 | 10 mg/kg | 23.9 mg/kg | 1250 to 1500 mg/kg | – | –
8 | CCOC(=O)Nc1ccc(NCc2ccc(NC(C)=O)cc2)nc1N.Cl [D 9663, 2-amino-3-carbethoxyamino-6-(4-methylcarbonylamino-benzylamino)-pyridine-hydrochloride] | 1.15 | 124 mg/kg | 2.49 | 57.2 mg/kg | 142 mg/kg | – | – | –
9 | CCOC(=O)Nc1ccc(NCc2ccc(S(N)(=O)=O)cc2)nc1N [D 9805, 2-amino-3-carbethoxyamino-6-(4-aminosulfonyl-benzylamino)-pyridine] | 4.9 | 108 mg/kg | 0.96 | 550 mg/kg | 530 mg/kg | – | – | –
10 | CCOC(=O)Nc1ccc(NCc2ccc(F)cc2)nc1N.Cl [D 9998, 2-amino-3-carbethoxyamino-6-(4-fluorobenzylamino)-pyridine-hydrochloride] | 1.67 | – | 1.86 | – | 37.7 mg/kg | 617 mg/kg | 22.5 mg/kg | 20.3 mg/kg

— US4554281A, “2-Amino-3-acylamino-6-benzylamino-pyridine-derivative having antiepileptic action” (priority 1982, dated 1985)
